Data as given in patent US20210363563A1, “MEDIUM FOR THE SPECIFIC DETECTION OF RESISTANT MICROORGANISMS” (BIOMERIEUX, priority 2005, published 2021).

Columns and labels:
[1] = test system: wild-type strains of the enterobacteria tested; test: Antibiotic concentration range on CPS ID 3 chromogenic agar: inhibition of wild-type strains; format: cell-based; conditions: CPS ID 3 agar, 37° C., aerobic atmosphere
Excerpt: (§1) In the context of the manipulations carried out, for evaluating the activity of the antibiotics active on gram-negative bacilli, various species of enterobacteria (Escherichia coli, Enterobacter aerogenes, Klebsiella pneumoniae, Serratia marcescens, Proteus mirabilis) and of nonfermenting gram-negative bacilli (Pseudomonas aeruginosa), capable of producing ESBLs, were used. ESBL-positive strains, high level cephalosporinase-producing strains (HL Case) and wild-type strains are compared in the trials.
(§2) The medium used was a CPS ID3 medium (reference 43541) also comprising at least one antibiotic and at least one resistance mechanism inhibitor.
(§3) Osmosed water is added and the whole is homogenized and melted in a waterbath at 100° C. The base medium is dispensed into flasks, the number of which corresponds to the total number of media to be tested during the process. The flasks are then autoclaved for 15 min at 121° C. The media are brought back to and kept molten at 55±3° C. in a waterbath, in order to sterilely add the thermolabile additives (sterilized beforehand by filtration through 0.22 μm). The media are then poured into biplates 90 mm in diameter (i.e. approximately 9.5 ml/half-plate), and left on a flat surface so that they can set. The surface of the agars is then dried under a laminar flow hood for 30 min.
(§4) An inoculum of 0.5 McF is prepared, in physiological saline, from 24-hour precultures at 36° C.±2° C. in an aerobic atmosphere on TSA medium, and then 1 μl of this suspension is transferred into 5 ml of physiological saline. In order to obtain a sufficient number of isolated colonies, a range of inocula made it possible to determine that the optimal amount of bacteria to be inoculated was from 10^3 to 10^4 CFU/ml. The inoculation is carried out directly on the two half-agars using a sterile swab. The cultures are then incubated at 37° C. in an aerobic atmosphere.
(§5) 4. Reading of media: the readings are carried out at 18 hours (±30 min), 24 h (±1h) and 48 h (±4 h). The density and the size of the colonies, and the appearance, the color and the coloration intensities of the mass and of the isolated colonies were observed, according to the following reading scales 1 to 3: 0: no growth; 0.1: trace of growth; 0.25: colonies of diameter<0.5 mm; 0.5: colonies of 0.5 mm in diameter; 0.75: 0.5 mm<diameter<1 mm; 1: colonies of 1 mm in diameter; 1.25: 1 mm<diameter<1.5 mm; 1.5: colonies 1.5 mm in diameter; 2: colonies 2 mm in diameter; 3: colonies of diameter>2 mm.
(§6) The 5 antibiotics recommended by the NCCLS (National Committee for Clinical Laboratory Standards) were tested. For each product tested, a range was prepared in order to determine the concentrations that make it possible to inhibit the wild-type strains of the enterobacteria tested, without affecting the growth of the ESBL-positive strains or the HL Case-positive strains.
(§7) The low value corresponds to the minimum concentration of the antibiotic required to inhibit the wild-type strains of the enterobacteria tested. The high value corresponds to the maximum concentration of the antibiotic that can be used without affecting the growth of the ESBL-positive strains tested.

ESBL-positive strains = test: Antibiotic concentration range on CPS ID 3 chromogenic agar: growth of ESBL-positive strains; format: cell-based; conditions: CPS ID 3 agar, 37° C., aerobic atmosphere
Excerpt: as §1, §2, §3, §4, §5, §6, §7

[2] = test system: wild-type strains of P. aeruginosa; test: Antibiotic concentration range on CPS ID 3: complete inhibition of wild-type P. aeruginosa; format: cell-based, Pseudomonas aeruginosa; conditions: CPS ID 3 agar
Excerpt: as §1
Osmosed water is added and the whole is homogenized and melted in a waterbath at 100° C. The base medium is dispensed into flasks, the number of which corresponds to the total number of media to be tested during the process. The flasks are then autoclaved for 15 min at 121° C. […]
as §5, with “mm. […]” for “mm.”

[3] = test system: ESBL-positive enterobacterial strains; format: cell-based, enterobacteria; conditions: in the presence of cefotaxime
Method: 4. Reading of media: the readings are carried out at 18 hours (±30 min), 24 h (±1h) and 48 h (±4 h). The density and the size of the colonies, and the appearance, the color and the coloration intensities of the mass and of the isolated colonies were observed, according to the following reading scales 1 to 3: 0: no growth; 0.1: trace of growth; 0.25: colonies of diameter<0.5 mm; 0.5: colonies of 0.5 mm in diameter; 0.75: 0.5 mm<diameter<1 mm; 1: colonies of 1 mm in diameter; 1.25: 1 mm<diameter<1.5 mm; 1.5: colonies 1.5 mm in diameter; 2: colonies 2 mm in diameter; 3: colonies of diameter>2 mm. […]

[4] = test system: E. casseliflavus and E. gallinarum strains (natural resistances); test: Example 4: Columbia chromogenic media with vancomycin, naturally resistant enterococci; format: cell-based, Enterococcus casseliflavus, Enterococcus gallinarum; conditions: vancomycin 8 mg/l
Method: In the context of the manipulations carried out, for evaluating the activity of antibiotics active on enterococci, various species of Enterococcus (Enterococccus faecalis, Enterococcus faecium, Enterococcus casseliflavus, Enterococcus gallinarum,) were used. In the assays, strains resistant to glycopeptides (VRE) and wild-type strains are compared.
The media used were a Columbia medium (51026), also comprising: • 5-bromo-4-chloro-3-indolyl-N-methyl-α-D-glucopyranoside (GreenA-α-Glu) at 150 mg/l, • 6-chloro-3-indolyl-β-glucopyranoside (Rose-b-Glu [Pink-b-Glu]) at 200 mg/l, or: • 5-bromo-4-chloro-3-indolyl-N-methyl-α-D-glucopyranoside (GreenA-α-Glu) at 150 mg/l, • alizarine-β-galactopyranoside at 50 mg/l • and vancomycin at 8 mg/l, • an amphotericin B at 4 mg/l, • and colistine at 2 mg/l, • and aztreonam at 32 mg/l.
as §3, with “two basic media are” for “base medium is”, “flasks.” for “flasks, the number of which corresponds to the total number of media to be tested during the process.”, “plates” for “biplates”, “diameter” for “diameter (i.e. approximately 9.5 ml/half-plate),”, “min. […]” for “min.”

Row | Structure (SMILES) | Low value: minimum concentration of the antibiotic required to inhibit the wild-type strains of the enterobacteria tested [1] [mg/L] | High value: maximum concentration of the antibiotic that can be used without affecting the growth of the ESBL-positive strains tested (ESBL-positive strains) [mg/L] | also measured
1 | C[C@H]1[C@H](NC(=O)/C(=N\OC(C)(C)C(=O)O)c2csc(N)n2)C(=O)N1S(=O)(=O)O [Aztreonam, aztreonam] | 1 | 1.5 | 
2 | CO/N=C(\C(=O)N[C@@H]1C(=O)N2C(C(=O)O)=C(COC(C)=O)CS[C@H]12)c1csc(N)n1 [Cefotaxime, cefotaxime] | 1 | 2 | 
3 | COCC1=C(C(=O)O)N2C(=O)[C@@H](NC(=O)/C(=N\OC)c3csc(N)n3)[C@H]2SC1 [Cefpodoxime, cefpodoxime] | 2 | 10 | 
4 | CC(C)(O/N=C(\C(=O)N[C@@H]1C(=O)N2C(C(=O)[O-])=C(C[n+]3ccccc3)CS[C@H]12)c1csc(N)n1)C(=O)O [Ceftazidime, ceftazidime] | 2 | 2.5 | minimum concentration for complete inhibition of wild-type strains of P. aeruginosa (limiting value) [2]: 1.5 mg/L
5 | CO/N=C(\C(=O)N[C@@H]1C(=O)N2C(C(=O)O)=C(CSc3nc(=O)c(=O)[nH]n3C)CS[C@H]12)c1csc(N)n1 [Ceftriaxone, ceftriaxone] | 1 | 2.5 | 
6 | O=C(O)[C@H]1/C(=C/CO)O[C@@H]2CC(=O)N21 [clavulanic acid] |  |  | relative effectiveness among the β-lactamase inhibitors (BLI) tested [3]: most effective BLI
7 | CN[C@H](CC(C)C)C(=O)N[C@H]1C(=O)N[C@@H](CC(N)=O)C(=O)N[C@H]2C(=O)N[C@H]3C(=O)N[C@H](C(=O)N[C@H](C(=O)O)c4cc(O)cc(O)c4-c4cc3ccc4O)[C@H](O)c3ccc(c(Cl)c3)Oc3cc2cc(c3O[C@@H]2O[C@H](CO)[C@@H](O)[C@H](O)[C@H]2O[C@H]2C[C@](C)(N)[C@H](O)[C@H](C)O2)Oc2ccc(cc2Cl)[C@H]1O [vancomycin] |  |  | effect on E. casseliflavus and E. gallinarum strains ([4]; medium with α-glucosidase and β-galactosidase substrates): inhibited; effect on E. casseliflavus and E. gallinarum strains ([4]; medium with α-glucosidase and β-glucosidase substrates): inhibited
